Test results reported in ChEMBL document CHEMBL2074341, “Biliary excretion of flavopiridol and its glucuronides in the isolated perfused rat liver: role of multidrug resistance protein 2 (Mrp2)” (Life Sci, 2003).

Target: ATP-binding cassette sub-family C member 2 (Rattus norvegicus, UniProt Q63120)
Experiment: TP_TRANSPORTER: transport activity, in vitro, Wistar vs TR-
Format: functional

Sequence of ATP-binding cassette sub-family C member 2 (Q63120 whole entry): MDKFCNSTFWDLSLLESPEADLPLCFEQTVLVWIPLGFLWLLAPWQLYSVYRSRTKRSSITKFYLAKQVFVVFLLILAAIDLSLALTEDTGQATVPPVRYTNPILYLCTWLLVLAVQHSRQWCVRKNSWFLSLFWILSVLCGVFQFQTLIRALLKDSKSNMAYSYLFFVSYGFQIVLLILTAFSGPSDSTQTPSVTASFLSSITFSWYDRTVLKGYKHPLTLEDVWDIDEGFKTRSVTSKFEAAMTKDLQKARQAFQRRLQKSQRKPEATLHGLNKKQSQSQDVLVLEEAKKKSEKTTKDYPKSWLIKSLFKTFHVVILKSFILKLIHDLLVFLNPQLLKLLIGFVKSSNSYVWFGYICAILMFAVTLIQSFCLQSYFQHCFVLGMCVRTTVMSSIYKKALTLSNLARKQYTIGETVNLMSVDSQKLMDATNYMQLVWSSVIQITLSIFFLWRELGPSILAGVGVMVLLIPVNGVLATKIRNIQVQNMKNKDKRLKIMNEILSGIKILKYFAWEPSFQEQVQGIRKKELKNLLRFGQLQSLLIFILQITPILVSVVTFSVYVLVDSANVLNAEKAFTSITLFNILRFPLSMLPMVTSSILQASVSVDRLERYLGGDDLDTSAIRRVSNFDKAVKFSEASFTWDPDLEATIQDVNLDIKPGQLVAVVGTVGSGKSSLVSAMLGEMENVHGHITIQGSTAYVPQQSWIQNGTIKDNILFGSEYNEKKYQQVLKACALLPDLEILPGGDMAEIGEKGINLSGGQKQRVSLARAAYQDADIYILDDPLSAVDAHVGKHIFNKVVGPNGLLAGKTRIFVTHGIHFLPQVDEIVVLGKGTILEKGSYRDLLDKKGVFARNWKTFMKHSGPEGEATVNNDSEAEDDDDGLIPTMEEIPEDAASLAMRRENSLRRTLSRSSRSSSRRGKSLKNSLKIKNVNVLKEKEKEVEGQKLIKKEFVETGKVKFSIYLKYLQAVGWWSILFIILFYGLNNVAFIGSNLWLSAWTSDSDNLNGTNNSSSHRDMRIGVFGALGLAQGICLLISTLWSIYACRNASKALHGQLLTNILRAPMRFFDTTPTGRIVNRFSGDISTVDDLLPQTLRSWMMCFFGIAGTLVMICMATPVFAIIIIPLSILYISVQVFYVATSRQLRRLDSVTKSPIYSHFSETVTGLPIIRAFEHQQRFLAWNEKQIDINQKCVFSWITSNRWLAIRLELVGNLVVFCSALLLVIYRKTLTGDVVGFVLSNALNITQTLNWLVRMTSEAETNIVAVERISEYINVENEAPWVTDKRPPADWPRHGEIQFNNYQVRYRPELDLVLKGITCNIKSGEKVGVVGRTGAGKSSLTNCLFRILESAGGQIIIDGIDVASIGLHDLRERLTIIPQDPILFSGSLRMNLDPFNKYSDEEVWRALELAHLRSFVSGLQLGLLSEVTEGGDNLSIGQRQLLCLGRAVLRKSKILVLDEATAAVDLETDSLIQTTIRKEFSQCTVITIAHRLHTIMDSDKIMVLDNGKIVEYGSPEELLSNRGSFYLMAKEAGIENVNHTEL

Row | Activity | SMILES
1 | substrate [] | CN1CC[C@H](c2c(O[C@@H]3O[C@H](C(=O)O)[C@@H](O)[C@H](O)[C@H]3O)cc(O)c3c(=O)cc(-c4ccccc4Cl)oc23)[C@H](O)C1
2 | substrate [] | CN1CC[C@H](c2c(O)cc(O[C@@H]3O[C@H](C(=O)O)[C@@H](O)[C@H](O)[C@H]3O)c3c(=O)cc(-c4ccccc4Cl)oc23)[C@H](O)C1
